Consider 16 compounds from patent US9926321B2, “Hsp90 inhibitors” (Sloan-Kettering Institute for Cancer Research, priority 2011, dated 2018).

Each structure is given as a SMILES string. Like-named read-outs stand apart in the source and are kept apart here.

One assay concerns Hsp90 (SKBr3 lysate). In words: Hsp90 binding assay (fluorescence polarization, cy3B-GM displacement), human cancer cell lysate. As to conditions: lysate not given. The procedure: (§1) For the binding studies, fluorescence polarization (FP) assays w-re performed similarly as was previously reported [Du et al. (2007) “High-throughput screening fluorescence polarization assay for tumor-specific Hsp90” J. Biomol. Screen 12:915-924]. Briefly, FP measurements were performed on an Analyst GT instrument (Molecular Devices, Sunnyvale, Calif.). Measurements were taken in black 96-well microtiter plates (Corning #3650) where both the excitation and the emission occurred from the top of the well. A stock of 10 μM cy3B-GM was prepared in DMSO and diluted with HFB buffer (20 mM Hepes (K), pH 7.3, 50 mM KCl, 2 mM DTT, 5 mM MgCl2, 20 mM Na2MoO4, and 0.01% NP40 with 0.1 mg/mL BGG). The test compounds were dissolved in DMSO and added at several concentrations to the HFB assay buffer containing both 6 nM cy3B-GM and transgenic mouse brain lysate (6 μg JNPL3 lysate) or human cancer cell lysate (3 μg SKBr3 lysate) in a final volume of 100 μL. Drugs were added to triplicate wells. Free cy3B-GM (6 nM cy3B-GM), bound cy3B-GM (6 nM cy3B-GM+lysate, as indicated above) and buffer only containing wells (background) were included as controls in each plate. Plates were incubated on a shake at 4° C., and polarization values measured at 24 h. Percentage inhibition was calculated as follows: (% Control)=100−((mPc−mPf)/(mPb−mPf))×100, where mPc is the recorded mP from compound wells, mPf is the average recorded mP from cy3B-GM-only wells, and mPb is the average recorded mP from wells containing both cy3B-GM and lysate, and plotted against values of competitor concentrations. The inhibitor concentration at which 50% of bound cy3B-GM was displaced was obtained by fitting the data using a nonlinear regression analysis as implemented in Prism 4.0 (GraphPad Software).

The next assay has as its system Hsp90. The assay is described as above. The conditions noted are these: fluorescence polarization, cy3B-GM displacement; the table does not say which lysate (SKBr3 or JNPL3). On the procedure:
as §1
On the technique in general: Polarisation of emitted light reports the rotation of a fluorescent probe.

A further assay deals with T1, hERG (Homo sapiens, UniProt Q12809).
T1 construct: purchased Invitrogen PV5365
Nature of the assay: hERG fluorescence polarization assay (Predictor hERG kit). The format is binding. The procedure:
hERG Fluorescence Polarization Assay:
Following the manufacturer's protocol, the hERG assay was performed using Predictor hERG Fluorescence Polarization Assay kit (catalog no. PV5365) from Invitrogen. Briefly, FP measurements were performed on an Analyst GT instrument (Molecular Devices, Sunnyvale, Calif.). Measurements were taken in black 384-well plates (Corning #3677), where both the excitation and the emission occurred from the top of the well. The test compounds were dissolved in DMSO and added at several concentrations to the Predictor hERG FP assay buffer containing 4 nM Predictor hERG tracer red and 10 μL of Predictor hERG membrane in a final volume of 20 μL. Drugs were added to triplicate wells. E-4031 as positive control was included in each plate. Plates were then kept on a shaker at room temperature and polarization values were measured after 4 hrs. The inhibition concentration at which 50% of tracer red gets displaced was obtained by fitting the data using a nonlinear regression analysis as implemented in Prism 5.0 (GraphPad Software).

The mark [1] stands for this setting: Predictor hERG fluorescence polarization, displacement of tracer red, read after 4 hrs, read-out: hERG assay.

T1 sequence (Q12809 whole entry): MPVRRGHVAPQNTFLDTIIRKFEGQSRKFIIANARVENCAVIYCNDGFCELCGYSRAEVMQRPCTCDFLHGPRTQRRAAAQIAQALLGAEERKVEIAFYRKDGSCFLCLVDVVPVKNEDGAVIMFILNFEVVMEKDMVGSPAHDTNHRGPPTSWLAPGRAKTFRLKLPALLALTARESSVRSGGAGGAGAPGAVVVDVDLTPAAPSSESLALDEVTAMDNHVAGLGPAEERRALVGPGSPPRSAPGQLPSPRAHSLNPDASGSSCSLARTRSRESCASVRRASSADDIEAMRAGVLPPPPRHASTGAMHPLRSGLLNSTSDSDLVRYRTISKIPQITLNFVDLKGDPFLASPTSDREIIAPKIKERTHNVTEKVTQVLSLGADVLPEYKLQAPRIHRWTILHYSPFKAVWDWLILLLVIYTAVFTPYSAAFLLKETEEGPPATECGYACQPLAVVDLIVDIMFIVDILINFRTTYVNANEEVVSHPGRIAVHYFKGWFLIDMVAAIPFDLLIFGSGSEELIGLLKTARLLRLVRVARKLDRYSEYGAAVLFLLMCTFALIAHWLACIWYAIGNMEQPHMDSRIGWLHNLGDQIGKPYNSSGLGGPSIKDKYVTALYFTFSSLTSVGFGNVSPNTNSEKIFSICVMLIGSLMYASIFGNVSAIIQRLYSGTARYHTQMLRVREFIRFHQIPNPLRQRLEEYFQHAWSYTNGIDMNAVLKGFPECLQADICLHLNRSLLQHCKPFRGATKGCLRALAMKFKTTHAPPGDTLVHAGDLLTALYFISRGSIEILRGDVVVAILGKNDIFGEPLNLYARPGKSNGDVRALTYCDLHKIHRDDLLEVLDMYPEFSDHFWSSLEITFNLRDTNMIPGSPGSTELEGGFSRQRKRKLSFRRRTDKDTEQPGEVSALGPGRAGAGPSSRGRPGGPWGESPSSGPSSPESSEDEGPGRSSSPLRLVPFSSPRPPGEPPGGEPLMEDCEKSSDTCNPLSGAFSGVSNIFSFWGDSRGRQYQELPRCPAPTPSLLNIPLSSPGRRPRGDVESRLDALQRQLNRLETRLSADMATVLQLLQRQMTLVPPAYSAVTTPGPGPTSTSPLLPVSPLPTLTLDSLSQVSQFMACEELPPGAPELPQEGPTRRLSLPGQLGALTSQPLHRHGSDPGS

Consider `CC(C)S(=O)(=O)NCCCn1c(Sc2cc3c(cc2I)OCO3)nc2c(N)ncnc21` [Compound 1A-22, Propane-2-sulfonic acid {3-[6-amino-8-(6-iodo-benzo[1,3]dioxol-5-ylsulfanyl)-purin-9-yl]-propyl}-amide], for which, in the assay on Hsp90 (SKBr3 lysate), the “Hsp90 binding affinity (in words, referring to Table 12)” value (from here on “Hsp90 binding affinity”) is listed as “high level of binding affinity”. The IC50 in the assay with Hsp90 was 47 nM; at hERG (setting [1]) it was greater than 100 µM.
Turning to `CC(C)(C)C(=O)NCCCn1c(Sc2cc3c(cc2I)OCO3)nc2c(N)ncnc21` [Compound 1A-43, N-(3-(6-amino-8-((6-iodobenzo[d][1,3]dioxol-5-yl)thio)-9H-purin-9-yl)propyl)pivalamide], the IC50 in the assay with Hsp90 was 11 nM; at hERG (setting [1]) it was greater than 100 µM.
As to `CN(C)c1cc2c(cc1Sc1nc3c(N)ncnc3n1CCCNC(=O)C(C)(C)C)OCO2` [Compound 1G-43, N-{3-[6-Amino-8-(6-dimethylamino-benzo[1,3]dioxol-5-ylsulfanyl)-purin-9-yl]-propyl}-2,2-dimethyl-propionamide], in the assay on Hsp90 (SKBr3 lysate), the “Hsp90 binding affinity” value was “high level of binding affinity”. The values for the IC50 with Hsp90 and on hERG (setting [1]) were 11 nM and greater than 100 µM, respectively.
For the compound `Nc1nc(F)nc2c1nc(Cc1cc3c(cc1I)OCO3)n2CCCNC(=O)C1CC1` [Compound 4A-45, Cyclopropanecarboxylic acid {3-[6-amino-2-fluoro-8-(6-iodo-benzo[1,3]dioxol-5-ylmethyl)-purin-9-yl]-propyl}-amide], the “Hsp90 binding affinity” value with Hsp90 (SKBr3 lysate) is “high level of binding affinity”. The values for the IC50 in the assay with Hsp90 and on hERG (setting [1]) were 20 nM and greater than 100 µM, respectively.
`Nc1ncnc2c1nc(Sc1cc3c(cc1I)OCO3)n2CCCNC(=O)C1CC1` [Compound 1A-45, N-(3-(6-amino-8-((6-iodobenzo[d][1,3]dioxol-5-yl)thio)-9H-purin-9-yl)propyl)cyclopropane carboxamide]: the figures for the IC50 in the assay with Hsp90 and at hERG (setting [1]) were 9.8 nM and greater than 100 µM, respectively.
Consider `CC(C)NS(=O)(=O)CCCn1c(Sc2cc3c(cc2I)OCO3)nc2c(N)ncnc21` [Compound 1A-15, 3-[6-Amino-8-(6-iodo-benzo[1,3]dioxol-5-ylsulfanyl)-purin-9-yl]-propane-1-sulfonic acid isopropylamide], for which, in the assay on Hsp90 (SKBr3 lysate), the “Hsp90 binding affinity” value is recorded as “high level of binding affinity”. In addition, the IC50 was 20.5 nM in the assay with Hsp90 and greater than 100 µM at hERG (setting [1]).
Regarding `CC(C)NCCCn1c(Sc2cc3c(cc2I)OCO3)nc2c(N)ncnc21` [PU-H71, reference compound], the IC50 at hERG (concentration displacing 50% of Predictor hERG tracer red, read-out: hERG assay result) was 1 µM.
Turning to `CC(C)(C)[S+]([O-])NCCCn1c(Cc2cc3c(cc2I)OCO3)nc2c(N)nc(F)nc21` (stereo not drawn) [Compound 4A-26, N-(3-(6-amino-2-fluoro-8-((6-iodobenzo[d][1,3]dioxol-5-yl)methyl)-9H-purin-9-yl)propyl)-2-methylpropane-2-sulfinamide], the “Hsp90 binding affinity” value with Hsp90 (SKBr3 lysate) was “high level of binding affinity”. Besides, the IC50 in the assay on Hsp90 was 26.2 nM; at hERG (setting [1]), greater than 100 µM.
`CC(C)(C)C(=O)NCCCn1c(Cc2cc3c(cc2I)OCO3)nc2c(N)nc(F)nc21` [Compound 4A-43, N-{3-[6-Amino-2-fluoro-8-(6-iodo-benzo[1,3]dioxol-5-ylmethyl)-purin-9-yl]-propyl}-2,2-dimethyl-propionamide]: the “Hsp90 binding affinity” value with Hsp90 (SKBr3 lysate) is given as “high level of binding affinity”. The IC50 was 33.1 nM in the assay with Hsp90 and greater than 100 µM at hERG (setting [1]).
Regarding `C#Cc1cc2c(cc1Sc1nc3c(N)ncnc3n1CCCNC(=O)C(C)(C)C)OCO2` [Compound 1B-43, N-{3-[6-Amino-8-(6-ethynyl-benzo[1,3]dioxol-5-ylsulfanyl)-purin-9-yl]-propyl}-2,2-dimethyl-propionamide], in the assay on Hsp90 (SKBr3 lysate), the “Hsp90 binding affinity” value is “high level of binding affinity”. The IC50 in the assay with Hsp90 was 28 nM; on hERG (setting [1]), greater than 100 µM.
For `C#Cc1cc2c(cc1Sc1nc3c(N)ncnc3n1CCCNC(=O)C1CC1)OCO2` [Compound 1B-45, Cyclopropanecarboxylic acid {3-(6-amino-8-(6-ethynyl-benzo[1,3]dioxol-5-ylsulfanyl)-purin-9-yl]-propyl}-amide], the “Hsp90 binding affinity” value in the assay with Hsp90 (SKBr3 lysate) is listed as “high level of binding affinity”. Moreover, the results for the IC50 in the assay with Hsp90 and on hERG (setting [1]) were 37 nM and greater than 100 µM, respectively.
Turning to `C#Cc1cc2c(cc1Sc1nc3c(N)ncnc3n1CCCNS(=O)(=O)C1CC1)OCO2` [Compound 1B-28, Cyclopropanesulfonic acid {3-[6-amino-8-(6-ethynyl-benzo[1,3]dioxol-5-ylsulfanyl)-purin-9-yl]-propyl}-amide], in the assay on Hsp90 (SKBr3 lysate), the “Hsp90 binding affinity” value is on record as “high level of binding affinity”. Further, the IC50 in the assay on Hsp90 is 53 nM; at hERG (setting [1]), greater than 100 µM.
Regarding `Nc1nc(F)nc2c1nc(Cc1cc3c(cc1I)OCO3)n2CCCNS(=O)(=O)C1CC1` [Compound 4A-28, N-(3-(6-amino-2-fluoro-8-((6-iodobenzo[d][1,3]dioxol-5-yl)methyl)-9H-purin-9-yl)propyl)cyclopropane-sulfonamide], the “Hsp90 binding affinity” value with Hsp90 (SKBr3 lysate) was “high level of binding affinity”. Moreover, the IC50 in the assay on Hsp90 is 24 nM; on hERG (setting [1]), greater than 100 µM.
Regarding `CC(C)(O)C(=O)NCCCn1c(Sc2cc3c(cc2I)OCO3)nc2c(N)ncnc21` [Compound 1A-48, N-(3-(6-Amino-8-((6-iodobenzo[d][1,3]dioxol-5-yl)thio)-9H-purin-9-yl)propyl)-2-hydroxy-2-methylpropanamide], the results for the IC50 in the assay with Hsp90 and at hERG (setting [1]) were 22.1 nM and 12 µM, respectively.
For `CN(C)c1cc2c(cc1Sc1nc3c(N)ncnc3n1CCCNC(=O)C1CC1)OCO2` [Compound 1G-45, Cyclopropanecarboxylic acid {3-[6-amino-8-(6-dimethylamino-benzo[1,3]dioxol-5-ylsulfanyl)-purin-9-yl]-propyl}-amide], the “Hsp90 binding affinity” value in the assay with Hsp90 (SKBr3 lysate) is listed as “high level of binding affinity”. In addition, the IC50 is 15 nM in the assay on Hsp90 and 76 µM on hERG (setting [1]).
Regarding `CC(C)(C)[S+]([O-])NCCCn1c(Sc2cc3c(cc2I)OCO3)nc2c(N)ncnc21` (stereo not drawn) [Compound 1A-26, 2-Methyl-propane-2-sulfinic acid {3-[6-amino-8-(6-iodo-benzo[1,3]dioxol-5-ylsulfanyl)-purin-9-yl]-propyl}-amide], the IC50 in the assay with Hsp90 was 12 nM; at hERG (setting [1]), greater than 100 µM.
